Data from PubChem BioAssay (NCI).
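Briefly, cells in 96-well plates were exposed to five compound concentrations for 48 h, and endpoints were estimated by linear interpolation. GI50 = concentration required for 50% inhibition of growth. Definition used: TGI = concentration required for complete inhibition of growth.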

Legend:
Assay in all cases: NCI anticancer screen, dose series, 48 h
[1] = tested on: HOP-92 NSCLC
[2] = tested on: SNB-19 CNS
[3] = tested on: U251 CNS
[4] = tested on: HCC-2998 colon
[5] = tested on: HT29 colon
[6] = tested on: OVCAR-5 ovarian
[7] = tested on: HS 578T breast
[8] = tested on: A498 renal
[9] = tested on: SF-268 CNS
[10] = tested on: SNB-75 CNS

| SMILES | GI50 [1] [µM] | TGI [1] [µM] | GI50 [2] [µM] | TGI [2] [µM] | GI50 [3] [µM] | TGI [3] [µM] | GI50 [4] [µM] | TGI [4] [µM] | GI50 [5] [µM] | TGI [5] [µM] | GI50 [6] [µM] | TGI [6] [µM] | GI50 [7] [µM] | TGI [7] [µM] | GI50 [8] [µM] | TGI [8] [µM] | GI50 [9] [µM] | TGI [9] [µM] | GI50 [10] [µM] | TGI [10] [µM] |
| --- | --- | --- | --- | --- | --- | --- | --- | --- | --- | --- | --- | --- | --- | --- | --- | --- | --- | --- | --- | --- |
| CC(=O)OC(C)C(OC(C)=O)C(OC(C)=O)C(/C=C/C1CC=CC(=O)O1)OC(C)=O (stereo not given) | 20.8 | 64.6 | 33.5 | > 100 | 30.7 | > 100 | 22.9 | 45.3 | 15.8 | 47.7 | 82.8 | > 100 | 12.4 | 33.1 | 16.9 | 45.3 | 27.5 | 75.7 | 10.3 | 28.6 |
| O=C(Nc1cnc(C(F)(F)F)cn1)c1cc(Cl)ccc1O | 0.188 | 0.621 | 0.403 | > 100 | 0.352 | > 100 | 0.294 | 4.6 | 2.56 | > 100 | 0.343 | > 100 | 0.335 | 26.4 | 0.235 | 0.639 | 0.296 | 94.1 | 0.194 | 0.835 |
| O=c1cccc(C#CC#CCCCO)o1 | 2.47 | 6.13 | 9.13 | 39.1 | 2.74 | 7.96 | 2.58 | 7.38 | 4.66 | > 100 | 5.57 | 11.6 | 9.68 | 25.5 | 23.7 | 40.5 | 7.71 | 18.5 | 18.2 | 66.3 |
| CC1(C)CC2=C(Sc3ccccc3N2)C(=O)C1C(=O)C(=O)Nc1cc(Cl)ccc1Cl (stereo not given) | – | > 100 | – | > 100 | – | > 100 | – | > 100 | – | > 100 | – | > 100 | – | > 100 | – | > 100 | – | > 100 | – | > 100 |
| Cc1cccc2c(Nc3ccc(NS(C)(=O)=O)cc3)c3ccc([N+](=O)[O-])cc3nc12 | 0.345 | 2.47 | 0.456 | 14.7 | 0.419 | 6.36 | 1.49 | 3.11 | 1.59 | 3.47 | 3.95 | 21.1 | 1.23 | 5.42 | 0.703 | 3.81 | 0.355 | 4.38 | 1.12 | 5.93 |
| Cc1oc2c(c1C(=O)N1CC[C@@H](N)C1)C(=O)c1c(c(O)c3ccccc3c1O)C2=O | 4.64 | 17.4 | 2.45 | 15.7 | 1.27 | 9.27 | 3.11 | 11.7 | 1.68 | 6.66 | 5.2 | 18.9 | 5.23 | 22.6 | 3.38 | 18.9 | 1.83 | 10.6 | 2.11 | 15.4 |
| C=C1CC[C@@H]2[C@](C)(COC(C)=O)[C@H](OC(C)=O)CC[C@@]2(C)[C@@H]1CC(Nc1ccc(S(=O)(=O)Nc2nccs2)cc1)C1=CCOC1=O (stereo not given in full) | 12.4 | 25.3 | 4.36 | 16.1 | 1.86 | 3.5 | 7.78 | 21.3 | 2.17 | 4.7 | 4.82 | 17.6 | 10.8 | 60.4 | 18.2 | 32.6 | 11.3 | 25.9 | 2.83 | 15.6 |
